In US8541645B2, “Animal model for cigarette-smoke-induced atherosclerosis and related methods” (University of Calcutta, priority 2009, dated 2013):

Columns and labels:
[1] = system: CS-induced atherosclerosis in guinea pig aorta; experiment: Cigarette-smoke-induced atherosclerosis in guinea pig aorta (H&E and Oil red O staining of aortic sections); format: in vivo; details: dietary supplementation of vitamin C 5 mg/day in addition to CS exposure; aortic sections stained with H&E or Oil red O (FIG. 3)
Method: Two to six, preferably three to four, month old male guinea pigs weighing between about 350 to about 450 grams (g) are used. All animals are maintained on a vitamin C-free diet for 7 days in order to minimize the in vivo levels of vitamin C in plasma and tissues. After 7 days of vitamin C deprivation, the guinea pigs are given a dietary supplementation of about 1 milligram (mg) of vitamin C per day (1 mg vitamin C/day) to prevent the onset of scurvy. (It is known that a dose of 0.8 mg vitamin C/day is sufficient to maintain guinea pigs without the development of scurvy.) Thereafter, the guinea pigs are subjected to cigarette smoke exposure (3 cigarettes per animal per day (3 cigarettes/animal/day) with 2 puffs per cigarette (2 puffs/cigarette)). Two puffs per cigarette indicate that the burning of a cigarette is divided into two halves. In each half, animals are exposed to cigarette smoke for a period of 1 minute (min.). There is an interval of 1 min. between these two halves. During this interval, animals are exposed to normal atmospheric air. Likewise, 3 puffs/cigarette would indicate that the burning of a cigarette is divided into three approximately equal parts with two intervals in between. […]

scurvy = details: dietary; cited from earlier work

For `O=C1O[C@H]([C@@H](O)CO)C(O)=C1O` [vitamin C, L-ascorbic acid], the “effect on CS-induced atherogenic changes in guinea pig aorta” value [1] is listed as “prevents CS-induced atherogenic changes” and the “dose sufficient to maintain guinea pigs without the development of scurvy” value (scurvy) is listed as 0.8 mg vitamin C/day.
